One test has as its system Pseudomonas. The experiment in a line: Agar dilution method, MIC. In kind it is cell-based. Conditions: strains of Pseudomonas. For orientation: In agar dilution the substance is mixed into plates at graded concentrations.
In test [1] the test system is Trichophyton mentagrophytes. The experiment in a line: Disc plate assay, zone of inhibition. Type of test: cell-based. As to the method:
(§1) The 7-acylamino-3-azido-3-cephem-4-carboxylic acids and the salts thereof inhibit the growth of bacteria pathogenic to man and animals. […] For example, 7β-(2-thienylacetamido)-3-azido-3-cephem-4-carboxylic acid inhibited the growth of various organisms as shown in the following Table 1.
(§2) ^1 concentration 1 mg./ml.
(§3) The 3-amino-2-substituted-3-cephem compounds (formula 5) as the free acids or salts thereof and the bicyclo nonenes (formula 6) as the free acids or salts thereof are antibacterial agents which inhibit the growth of bacteria pathogenic to man and animals. In Table 3 below the in vitro antibacterial properties of the three isomeric products represented by formulae 5 and 6 obtained in the disc-plate method is tabulated.

A further test concerns Candida albicans. The experiment in a line: Disc plate assay, zone of inhibition. Type of test: cell-based. The protocol:
as §1, §2, §3

For test [2], the system named is Escherichia coli. The test can be described thus: Agar dilution method, MIC. Type of test: cell-based.
In a further test the test system is Proteus vulgaris. The experiment in a line: Disc plate assay, zone of inhibition. In kind it is cell-based.
The next test concerns Klebsiella pneumoniae. The test can be described thus: Agar dilution method, MIC. In kind it is cell-based.
In test [3] the test system is Escherichia coli. The experiment in a line: Disc plate assay, zone of inhibition. Conditions: for zone of inhibition at 3000 µg/mL: read-out: Zone of Inhibition (mm. diam.). In kind it is cell-based.
For test [4], the system named is Staphylococcus aureus. The experiment in a line: Agar dilution method, MIC. Type of test: cell-based.
The next test deals with Streptococcus sp. D. The experiment in a line: Agar dilution method, MIC. Type of test: cell-based.
A further test relates to Salmonella gallinarum. The test can be described thus: Disc plate assay, zone of inhibition. Type of test: cell-based. Particulars: Salmonella enterica, concentration 1 mg./ml. As to the method:
as §1, §2

In test [5] the test system is Saccharomyces postorianus. The test can be described thus: Disc plate assay, zone of inhibition. Type of test: cell-based. Conditions: concentration 1 mg./ml. As to the method: as §1, §2
The next test concerns Pseudomonas aeruginosa. The experiment in a line: Disc plate assay, zone of inhibition. Type of test: cell-based. Conditions: concentration 1 mg./ml. As to the method:
as §1, §2

A further test has as its system Serratia marcescens. The experiment in a line: Disc plate assay, zone of inhibition. In kind it is cell-based. Particulars: concentration 1 mg./ml. As to the method:
as §1, §2

A further test has as its system Streptococcus pneumoniae. The experiment in a line: Agar dilution method, MIC. Conditions: strain Park. Type of test: cell-based.
Another test deals with Micrococcus luteus. The experiment in a line: Disc plate assay, zone of inhibition. Type of test: cell-based. Particulars: for zone of inhibition at 3000 µg/mL: read-out: Zone of Inhibition (mm. diam.).
For the next test, the system named is Pseudomonas solanacearum. The experiment in a line: microbe, parasite or virus in culture. Type of test: cell-based. Particulars: Ralstonia solanacearum; for zone of inhibition at 3000 µg/mL: read-out: Zone of Inhibition (mm. diam.).
The next test relates to Enterobacter aerogenes. The test can be described thus: Agar dilution method, MIC. Type of test: cell-based.
Test [6] has as its system Staphylococcus aureus. The test can be described thus: Disc plate assay, zone of inhibition. Type of test: cell-based. Particulars: for zone of inhibition at 3000 µg/mL: read-out: Zone of Inhibition (mm. diam.).
In the next test the test system is Proteus. The experiment in a line: Agar dilution method, MIC. In kind it is cell-based. Conditions: strains of Proteus.
Test [7] deals with Streptococcus epidermidis. The test can be described thus: Agar dilution method, MIC. Type of test: cell-based.
The subject of another test is Salmonella typhi. The test can be described thus: Agar dilution method, MIC.
For a further test, the system named is Enterobacter cloacae. The experiment in a line: Agar dilution method, MIC. In kind it is cell-based.
A further test deals with Serratia. The experiment in a line: Agar dilution method, MIC. Type of test: cell-based. Particulars: strains of Serratia.
Another test concerns Haemophilus influenzae. The test can be described thus: Agar dilution method, MIC. Type of test: cell-based.
The test system of test [8] is Bacillus stearothyermophilus. The test can be described thus: Disc plate assay, zone of inhibition. Type of test: cell-based. Particulars: for zone of inhibition at 3000 µg/mL: read-out: Zone of Inhibition (mm. diam.).
The next test deals with Bacillus subtilis. The experiment in a line: Disc plate assay, zone of inhibition. In kind it is cell-based. Conditions: for zone of inhibition at 3000 µg/mL: read-out: Zone of Inhibition (mm. diam.).
For a further test, the system named is Streptococcus pyogenes. The experiment in a line: Agar dilution method, MIC. In kind it is cell-based. Conditions: strain C203.

Values after ≈ are worked out from the molar mass of the structure shown. Where a name gives a salt, the structure may show the parent alone. Read-outs that look alike come from different tables or passages of the source.

Usually zone of inhibition stands for the extent of the growth-free halo in a diffusion test. Take `[N-]=[N+]=NC1=C(C(=O)O)N2C(=O)[C@@H](NC(=O)Cc3cccs3)[C@H]2SC1` [7β-(2-Thienylacetamido)-3-azido-3-cephem-4-carboxylic acid]: the MIC with Pseudomonas is no less than 128 µg/mL; in the test with Escherichia coli [2], 128 µg/mL (≈ 350 µM); with Escherichia coli [2] (strain EC14, read-out: MIC), 16 µg/mL (≈ 43.8 µM); in the test with Escherichia coli [2] (strain N10, read-out: MIC), 64 µg/mL (≈ 175 µM); against Klebsiella pneumoniae it was 128 µg/mL (≈ 350 µM); in the test with Klebsiella pneumoniae (strain X26, read-out: MIC) it was 4 µg/mL (≈ 10.9 µM). Further, the MIC in the test with Klebsiella pneumoniae (strain X68, read-out: MIC) came to 16 µg/mL (≈ 43.8 µM); with Staphylococcus aureus [4] (strain S13E) it was 64 µg/mL (≈ 175 µM); in the test on Staphylococcus aureus [4] (strain V41, read-out: MIC), 64 µg/mL (≈ 175 µM); in the test with Staphylococcus aureus [4] (strain X1.1, read-out: MIC), 8 µg/mL (≈ 21.9 µM); in the test on Staphylococcus aureus [4] (strain X400, read-out: MIC), 128 µg/mL (≈ 350 µM); with Streptococcus sp. D (Streptococcus, strain X66, read-out: MIC), 128 µg/mL (≈ 350 µM). In addition, the MIC is 128 µg/mL (≈ 350 µM) against Streptococcus sp. D (strain 2041); 0.25 µg/mL (≈ 0.684 µM) with Streptococcus pneumoniae; 128 µg/mL (≈ 350 µM) with Enterobacter aerogenes (Klebsiella aerogenes, strain C32, read-out: MIC); 128 µg/mL (≈ 350 µM) in the test on Enterobacter aerogenes (strain EB17); no less than 128 µg/mL in the test with Proteus; 4 µg/mL (≈ 10.9 µM) in test [7] (strain 222). In addition, the MIC in [7] (strain EP11) was 16 µg/mL (≈ 43.8 µM); against Salmonella typhi (Salmonella enterica, TYPHI), 16 µg/mL (≈ 43.8 µM); with Salmonella typhi (strain 1335), 16 µg/mL (≈ 43.8 µM); in the test with Enterobacter cloacae (Enterobacter cloacae, strain EB5, read-out: MIC), 128 µg/mL (≈ 350 µM); with Enterobacter cloacae (strain 265A), 128 µg/mL (≈ 350 µM); against Serratia, no less than 128 µg/mL. Further, the MIC with Haemophilus influenzae (strain 76) turned out to be 4 µg/mL (≈ 10.9 µM); with Haemophilus influenzae (strain C.L.) it was 16 µg/mL (≈ 43.8 µM); against Streptococcus pyogenes, 0.5 µg/mL (≈ 1.37 µM). Besides, the “detectable zone of inhibition” value (in test [1] (concentration 1 mg./ml.); in the test with Candida albicans (concentration 1 mg./ml.); in test [5]; in the test on Pseudomonas aeruginosa; with Serratia marcescens) was “failed to produce a detectable zone of inhibition” throughout. The zone of inhibition at 1000 µg/mL is 25 mm in the test with Proteus vulgaris (Proteus vulgaris, concentration 1 mg./ml.); 21 mm in the test on Escherichia coli [3] (Escherichia coli, concentration 1 mg./ml.); 19 mm with Salmonella gallinarum; 23 mm in the test with Micrococcus luteus (Micrococcus luteus, concentration 1 mg./ml.); 29 mm with Pseudomonas solanacearum; 30 mm in the test on Staphylococcus aureus [6] (Staphylococcus aureus, concentration 1 mg./ml.). Also, the zone of inhibition at 1000 µg/mL in [8] (Bacillus, concentration 1 mg./ml.) amounted to 20 mm; with Bacillus subtilis (Bacillus subtilis, concentration 1 mg./ml.) it was 30 mm.
Take `COC1=N[C@@H](C(=O)[O-])N2C(=O)[C@H](NC(=O)Cc3cccs3)[C@@H]2SC1.[Na+]` [Compound A, [2R-(2α,7α,8β)],-4-Methoxy-9-oxo-8-[(2-thienylacetyl)-amino]-6-thia-1,3-diazabicyclo[5.2.0]non-3-ene-2-carboxylic acid sodium salt]: the “Zone of Inhibition (mm. diam.)” value in test [1] (Concentration: 3 mg./ml.) was “tr”; with Escherichia coli [3] (Concentration: 3 mg./ml.) it was 12 mm; with Micrococcus luteus (Concentration: 3 mg./ml.), 10 mm; with Staphylococcus aureus [6] (Concentration: 3 mg./ml.), 18 mm; in test [8] (Concentration: 3 mg./ml.) it was 11 mm; in the test with Bacillus subtilis (Concentration: 3 mg./ml.), 15 mm.
Regarding `COC1=NCS[C@@H]2[C@H](NC(=O)Cc3cccs3)C(=O)N2[C@H]1C(=O)O` [Compound B, [2R-(2α,7α,8β)],-3-Methoxy-9-oxo-8-[(2-thienylacetyl)-amino]-6-thia-1,4-diaza[5.2.0]non-3-ene-2-carboxylic acid sodium salt], the zone of inhibition at 3000 µg/mL in the test on Candida albicans (Candida albicans, Concentration: 3 mg./ml., read-out: Zone of Inhibition (mm. diam.)) is 13 mm; in the test on Escherichia coli [3] (Escherichia coli, Concentration: 3 mg./ml.), 25 mm; with Micrococcus luteus (Micrococcus luteus, Concentration: 3 mg./ml.) it was 25 mm; in the test on Pseudomonas solanacearum, 12 mm; in the test on Staphylococcus aureus [6] (Staphylococcus aureus, Concentration: 3 mg./ml.) it was 29 mm; in test [8] (Bacillus, Concentration: 3 mg./ml.) it was 34 mm. In addition, the zone of inhibition at 3000 µg/mL with Bacillus subtilis (Bacillus subtilis, Concentration: 3 mg./ml.) is 27 mm.
On to `COC1S[C@@H]2[C@H](NC(=O)Cc3cccs3)C(=O)N2C(C(=O)[O-])=C1N.[Na+]` (stereo partly drawn) [Compound C, Sodium 7β-[(2-thienylacetyl)amino]-2-methoxy-3-amino-3-cephem-4-carboxylate], for which, in the test on Proteus vulgaris (Concentration: 3 mg./ml.), the “Zone of Inhibition (mm. diam.)” value is recorded as “tr”. Besides, the zone of inhibition at 3000 µg/mL in the test with Escherichia coli [3] (Escherichia coli) was 30 mm; in the test on Micrococcus luteus (Micrococcus luteus) it was 24 mm; in the test with Pseudomonas solanacearum, 11 mm; with Staphylococcus aureus [6] (Staphylococcus aureus), 29 mm; in [8] (Bacillus), 36 mm; with Bacillus subtilis (Bacillus subtilis), 30 mm.

Values taken from patent US4521598A, “3-Azidocephalosporins” (priority 1983, dated 1985).
